Results reported in US9351955B2, “Compounds and pharmaceutical compositions thereof for the treatment of cystic fibrosis” (Galapagos NV, priority 2013, dated 2016).

Legend:
Assay type in all cases: cell-based
CFTR ΔF508 mutant [1] = target: T1, CFTR ΔF508 mutant (Homo sapiens, UniProt P13569, DEL508-508); assay: YFP-halide influx assay for the CFTR-ΔF508 mutation (96 well, CFBE41o- cells); details: compounds of the invention, 96 well, forskolin 10.67 μM, read-out: EC50 measured by YFP-halide influx assay for the CFTR-ΔF508
T1 construct: expressed in transfected cells; host or cells: CFBE41o- (adenoviral transduction)
Summary of the method: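 CFBE41o- cells were adenovirally transduced with CFTR ΔF508 and the halide-sensitive YFP H148Q/I152L. They were then corrected either at 27 °C for 24 h or with a CFTR modulator for 24 h at 37 °C. After iodide injection, YFP quenching over 7 s was expressed as 1−F/F0, and EC50 was derived from the concentration–response plot.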

CFTR-S549N = target: T2, CFTR-S549N (Homo sapiens, UniProt P13569, S549N); assay: YFP-halide influx assay for the CFTR-S549N; details: CFTR-S549N mutant; read-out: EC50 measured by YFP-halide influx assay for the CFTR-S549N
T2 construct: expressed in transfected cells
From the text: (§1) The YFP halide influx assay measures the functionality of the cystic fibrosis Transmembrane Conductance regulator (CFTR) channels. The assay is used to evaluate the capacity of compounds to increase the channel opening of existing mutant CFTR channels in the membrane. It makes use of the observation that the yellow fluorescent protein (YFP) variant YFP H148Q, I152L, F47L has its fluorescence substantially quenched by halide ions like Cl^− and I^−. (Galietta et al., 2001)
(§2) For this purpose, HEK293-cells are seeded in 96 well plates. During seeding, the cells are reverse-transfected with plasmid vectors that direct the expression of the CFTR G551D mutant and of the YFP reporter. Cells are incubated at 37° C., 5% CO2 for 24 hours so as to allow for sufficient expression of the CFTR protein.
(§3) The I^−-induced quenching of fluorescence is recorded immediately after injection of I^− for 7 seconds. The capacity of a compound to increase the channel opening is directly correlated with the decrease in fluorescence, and is expressed as (1−(fluorescence after 7 seconds (F)/fluorescence before injection (F0))) and an EC50 can be derived from a (1−F/F0) vs compound concentration plot.
(§4) Similar YHA assays were developed for other channel gating defective or channel conductance defective CFTR mutants to determine effect of compound on channel activity. Examples of mutants are G178R, G1349D, S549N, R117H, R334W. This assay is also used for additional class I CFTR mutants, including G542X, W1282X; class II mutants including N1303K, and for class III mutants including S1251N; or wild-type CFTR.

CFTR-R117H = target: T3, CFTR-R117H (Homo sapiens, UniProt P13569, R117H); assay: YFP-halide influx assay for the CFTR-R117H; details: CFTR-R117H mutant; read-out: EC50 measured by YFP-halide influx assay for the CFTR-R117H
T3 construct: expressed in transfected cells
From the text: as §1, §2, §3, §4

CFTR-G178R = target: T4, CFTR-G178R (Homo sapiens, UniProt P13569, G178R); assay: YFP-halide influx assay for the CFTR-G178R; details: read-out: EC50 measured by YFP-halide influx assay for the CFTR-G178R
T4 construct: expressed in transfected cells
From the text: as §1, §2, §3, §4

CFTR ΔF508 mutant [2] = target: T1, CFTR ΔF508 mutant; assay: YFP-halide influx assay for the CFTR-ΔF508 mutation (384 well, CFBE41o- cells, FDSS/μCell); details: forskolin 10.67 μM, fluorescence after 36 seconds, read-out: EC50 measured by YFP-halide influx assay for the CFTR-ΔF508
Summary of the method: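 CFBE41o- cells were adenovirally transduced with ΔF508 CFTR and the YFP H148Q/I152L reporter. Cells were then held 24 h at 27 °C or treated 24 h at 37 °C with a CFTR modulator. Iodide-induced quench was recorded for 2 min, and EC50 was derived from 1−F/F0 at 36 s against compound concentration.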

CFTR-G1349D = target: T5, CFTR-G1349D (Homo sapiens, UniProt P13569, G1349D); assay: YFP-halide influx assay for the CFTR-G1349D; details: CFTR-G1349D mutant; read-out: EC50 measured by YFP-halide influx assay for the CFTR-G1349D
T5 construct: expressed in transfected cells
From the text: as §1, §2, §3, §4

CFTR G551D mutant = target: T6, CFTR G551D mutant (Homo sapiens, UniProt P13569, G551D); assay: YFP-halide influx assay for the CFTR-G551D mutation (HEK293 cells); details: HEK293 cells expressing CFTR G551D and YFP reporter; forskolin 10.67 μM; read-out: EC50 measured by YFP-halide influx assay for the CFTR-G551D
T6 construct: expressed in transfected cells; host or cells: HEK293 (reverse transfection with plasmids)
Summary of the method: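 HEK293 cells reverse-transfected with CFTR G551D and halide-sensitive YFP, expressed 24 h at 37 °C. Iodide-induced fluorescence quench recorded for 7 s after I^− injection; response as 1−F/F0, EC50 from concentration plot.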

CFTR ΔF508 = target: T7, CFTR ΔF508 (Homo sapiens, UniProt P13569, DEL508-508); assay: TECC assay, primary bronchial epithelial cells from CF patients homozygous for CFTR ΔF508; details: primary bronchial epithelial cells, CFTR ΔF508; several values in a cell = repeat determinations
T7 construct: host or cells: primary bronchial epithelial cells from CF patients homozygous for ΔF508, pre-treated with VX809
Method: 7.2.1. Primary Bronchial Epithelial Cells Protocol
The TECC (Tranepithelial Clamp Circuit, EP-design) assay measures the functionality of the cystic fibrosis Transmembrane Conductance regulator (CFTR) by measuring the short circuit current (ISC) generated over the basolateral and apical membrane of lung epithelial cells. In TECC the transepithelial potential PD and transepithelial resistance (Rt) are measured in an open circuit and transformed to ISC using Ohm's law. 24 wells can be measured simultaneously allowing a higher throughput compared to Ussing chambers.
For this purpose, bronchial epithelial cells isolated from CF patients homozygous for the CFTR ΔF508 mutation (hAEC-CF, Epithelix) are plated on type IV collagen-coated Transwell supports (Costar). Human airway epithelia are generated by provision of an air-liquid interface for 21 days to form well-differentiated polarized cultures that resemble in vivo pseudo-stratified ciliated epithelium (Fulcher et al., 2005). In the case of the homozygous ΔF508 CFTR samples, the differentiated cells are treated with 3 μM VX809 (2626 South Loop West, Suite 225, Houston, Tex. 77054 USA, Cat n#51565) to allow sufficient expression of properly folded CFTR protein on the membrane (48 hours basolateral treatment and 24 hours apical treatment), prior to electrophysiological recordings. […] G551D/ΔF508, differentiated cells are used as such for the recordings.
Information on the compounds can be retrieved on the homozygous ΔF508 CFTR samples looking at increased CFTR activity when compounds are added in an acute mode or in a chronic mode. On G551D/ΔF508 CFTR heterozygous samples compounds are added in an acute mode to the differentiated cells.
For the acute mode, for electrophysiological recording, the human airway epithelia are mounted in the TECC heating plate for electrophysiological measurement and kept at 37° C. The epithelia are bathed in a NaCl-Ringer solution (120 mM NaCl, 25 mM NaHCO3, 1.2 mM CaCl2, 1.2 mM MgCl2, 0.8 mM KH2PO4, 0.8 mM K2HPO4, pH 7.4, 5 mM glucose) on both the basolateral and apical sides. Apical amiloride is used to inhibit the endogenous ENaC currents while forkolin is applied on both apical and basolateral side to stimulate CFTR. After forskolin triggering, compounds are added on both sides to test their potential for increasing CFTR gating. Measurements are done during a 20 minute timeframe with recordings every 2 minutes. The increase in ISC is used as a measure for the increased CFTR activity, EC50 values can be generated by measuring impact of different concentrations of compound on ISC on primary cells, for this purpose each transwell is treated with a different compound concentration. Inh-172, an inhibitor specific for CFTR, is used to test the specificity of the tested compounds.
For the chronic mode, the differentiated cells are treated with 3 μM VX809 (2626 South Loop West, Suite 225, Houston, Tex. 77054 USA, Cat n#51565) and potentiator compounds at different concentrations (48 hours basolateral treatment and 24 hours apical treatment), prior to electrophysiological recordings. For electrophysiological recording, the human airway epithelia are mounted in the TECC heating plate for electrophysiological measurement and kept at 37° C. […]

T4 sequence (P13569 whole entry G178R): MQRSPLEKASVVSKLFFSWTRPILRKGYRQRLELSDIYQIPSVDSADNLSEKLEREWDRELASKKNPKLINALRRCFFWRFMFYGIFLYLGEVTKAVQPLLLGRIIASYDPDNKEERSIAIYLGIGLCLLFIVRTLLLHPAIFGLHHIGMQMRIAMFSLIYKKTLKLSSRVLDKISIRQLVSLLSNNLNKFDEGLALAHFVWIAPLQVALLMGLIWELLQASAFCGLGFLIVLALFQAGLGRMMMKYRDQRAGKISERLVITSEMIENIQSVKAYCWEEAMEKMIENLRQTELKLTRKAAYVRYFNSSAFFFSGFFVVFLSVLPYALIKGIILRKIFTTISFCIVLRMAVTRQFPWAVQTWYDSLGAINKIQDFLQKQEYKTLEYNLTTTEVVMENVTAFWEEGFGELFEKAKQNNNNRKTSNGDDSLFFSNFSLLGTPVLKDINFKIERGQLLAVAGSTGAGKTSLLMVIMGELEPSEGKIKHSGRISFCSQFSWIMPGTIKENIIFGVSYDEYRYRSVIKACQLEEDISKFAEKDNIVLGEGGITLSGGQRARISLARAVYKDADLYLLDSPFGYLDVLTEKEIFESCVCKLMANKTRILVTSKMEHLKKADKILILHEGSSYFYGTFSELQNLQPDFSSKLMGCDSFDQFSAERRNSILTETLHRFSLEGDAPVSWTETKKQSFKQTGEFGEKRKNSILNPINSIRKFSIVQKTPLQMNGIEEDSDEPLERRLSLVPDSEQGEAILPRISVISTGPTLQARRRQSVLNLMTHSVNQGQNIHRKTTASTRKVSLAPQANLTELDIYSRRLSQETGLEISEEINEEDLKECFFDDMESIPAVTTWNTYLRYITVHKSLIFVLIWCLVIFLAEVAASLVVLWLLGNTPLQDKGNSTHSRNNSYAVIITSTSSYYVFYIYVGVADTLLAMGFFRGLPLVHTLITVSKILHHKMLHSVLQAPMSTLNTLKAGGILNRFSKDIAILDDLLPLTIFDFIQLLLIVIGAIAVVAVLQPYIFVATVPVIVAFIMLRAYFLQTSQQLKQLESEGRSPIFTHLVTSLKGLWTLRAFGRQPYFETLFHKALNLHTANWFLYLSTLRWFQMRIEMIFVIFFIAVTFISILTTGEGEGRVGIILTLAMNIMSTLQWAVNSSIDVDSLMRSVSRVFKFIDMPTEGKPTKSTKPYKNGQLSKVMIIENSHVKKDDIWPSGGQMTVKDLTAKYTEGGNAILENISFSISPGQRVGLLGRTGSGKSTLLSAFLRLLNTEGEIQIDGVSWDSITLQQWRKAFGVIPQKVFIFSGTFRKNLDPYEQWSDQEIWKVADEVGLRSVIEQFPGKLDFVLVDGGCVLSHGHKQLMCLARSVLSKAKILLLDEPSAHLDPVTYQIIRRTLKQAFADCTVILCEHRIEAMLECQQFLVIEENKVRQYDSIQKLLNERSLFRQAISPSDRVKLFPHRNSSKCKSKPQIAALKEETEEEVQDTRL
T1 sequence (P13569 with tags, fused parts or gaps DEL508-508): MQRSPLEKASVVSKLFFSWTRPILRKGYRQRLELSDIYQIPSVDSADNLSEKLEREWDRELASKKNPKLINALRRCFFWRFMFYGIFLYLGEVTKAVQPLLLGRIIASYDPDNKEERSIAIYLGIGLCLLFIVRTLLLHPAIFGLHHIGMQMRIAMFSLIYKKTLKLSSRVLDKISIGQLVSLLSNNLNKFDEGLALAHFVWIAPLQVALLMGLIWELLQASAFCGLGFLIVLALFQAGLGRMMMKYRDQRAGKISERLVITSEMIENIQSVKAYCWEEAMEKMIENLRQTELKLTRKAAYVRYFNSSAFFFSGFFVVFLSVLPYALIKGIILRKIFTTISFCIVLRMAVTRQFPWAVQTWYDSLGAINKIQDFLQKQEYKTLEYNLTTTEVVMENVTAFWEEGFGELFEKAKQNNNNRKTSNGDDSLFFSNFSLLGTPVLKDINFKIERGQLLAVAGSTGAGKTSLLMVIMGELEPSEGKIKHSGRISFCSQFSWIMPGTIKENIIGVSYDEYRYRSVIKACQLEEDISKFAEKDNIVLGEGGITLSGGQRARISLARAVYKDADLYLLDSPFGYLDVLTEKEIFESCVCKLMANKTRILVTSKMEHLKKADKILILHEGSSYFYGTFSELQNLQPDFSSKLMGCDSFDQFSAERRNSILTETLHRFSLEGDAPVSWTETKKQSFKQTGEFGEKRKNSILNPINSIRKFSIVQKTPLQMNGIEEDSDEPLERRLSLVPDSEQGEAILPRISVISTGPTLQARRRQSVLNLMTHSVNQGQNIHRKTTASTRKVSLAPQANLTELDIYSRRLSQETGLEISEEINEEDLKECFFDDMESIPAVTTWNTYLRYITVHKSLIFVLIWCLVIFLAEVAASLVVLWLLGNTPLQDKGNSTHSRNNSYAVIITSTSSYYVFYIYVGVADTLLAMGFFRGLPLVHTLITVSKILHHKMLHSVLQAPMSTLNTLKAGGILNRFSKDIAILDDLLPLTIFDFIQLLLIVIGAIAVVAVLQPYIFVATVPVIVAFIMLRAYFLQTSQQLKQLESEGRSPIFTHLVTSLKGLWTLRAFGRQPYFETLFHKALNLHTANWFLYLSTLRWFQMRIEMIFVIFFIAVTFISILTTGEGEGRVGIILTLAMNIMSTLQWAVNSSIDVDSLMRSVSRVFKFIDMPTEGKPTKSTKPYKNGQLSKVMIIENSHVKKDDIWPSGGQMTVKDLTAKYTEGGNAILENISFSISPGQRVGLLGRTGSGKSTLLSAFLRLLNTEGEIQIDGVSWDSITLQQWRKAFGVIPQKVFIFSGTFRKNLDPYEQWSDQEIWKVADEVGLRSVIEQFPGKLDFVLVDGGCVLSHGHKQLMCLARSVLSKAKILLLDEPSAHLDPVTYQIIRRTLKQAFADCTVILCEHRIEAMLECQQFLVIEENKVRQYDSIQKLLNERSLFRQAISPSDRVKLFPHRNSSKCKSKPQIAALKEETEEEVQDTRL
T2 sequence (P13569 whole entry S549N): as the sequence (P13569 whole entry G178R) above, with R178G, S549N counted along it
T3 sequence (P13569 whole entry R117H): as the sequence (P13569 whole entry G178R) above, with R117H, R178G counted along it
T5 sequence (P13569 whole entry G1349D): as the sequence (P13569 whole entry G178R) above, with R178G, G1349D counted along it
T6 sequence (P13569 whole entry G551D): as the sequence (P13569 whole entry G178R) above, with R178G, G551D counted along it
T7 sequence (P13569 with tags, fused parts or gaps DEL508-508): as the sequence (P13569 with tags, fused parts or gaps DEL508-508) above

Row | SMILES | EC50 (CFTR ΔF508 mutant [1]) [nM] | EC50 (CFTR-S549N) [nM] | EC50 (CFTR-R117H) [nM] | EC50 (CFTR-G178R) [nM] | EC50 (CFTR ΔF508 mutant [2]) [nM] | EC50 (CFTR-G1349D) [nM] | EC50 (CFTR G551D mutant) [nM] | EC50 (CFTR ΔF508) [nM]
1 | Cc1[nH]nc(C(=O)Nc2sc3c(c2C(N)=O)CC(C)(C)OC3(C)C)c1Cl [Compound 34, N-(3-carbamoyl-5,5,7,7-tetramethyl-5,7-dihydro-4H-thieno[2,3-c]pyran-2-yl)-4-chloro-5-methyl-1H-pyrazole-3-carboxamide] | 10 | 444 | 301 | 42.2 | 10.1 | 47.4 | 270 | –
2 | COCc1cc(C(=O)Nc2sc3c(c2C(N)=O)CC(C)(C)OC3(C)C)n[nH]1 [Compound 42, N-(3-carbamoyl-5,5,7,7-tetramethyl-5,7-dihydro-4H-thieno[2,3-c]pyran-2-yl)-5-(methoxymethyl)-1H-pyrazole-3-carboxamide] | 12.2 | 508 | 193 | 156 | 15.3 | 678 | – | –
3 | COCc1c[nH]nc1C(=O)Nc1sc2c(c1C(N)=O)CC(C)(C)OC2(C)C [Compound 105, N-(3-carbamoyl-5,5,7,7-tetramethyl-4H-thieno[2,3-c]pyran-2-yl)-4-(methoxymethyl)-1H-pyrazole-3-carboxamide] | – | 293 | 435 | 54.4 | 6.67 | 120 | 730 | 54.4
4 | CC1(C)Cc2c(sc(NC(=O)C3(O)CCOCC3)c2C(N)=O)C(C)(C)O1 [Compound 154, 2-[(4-hydroxytetrahydropyran-4-carbonyl)amino]-5,5,7,7-tetramethyl-4H-thieno[2,3-c]pyran-3-carboxamide] | – | 2370 | 1580 | 3330 | 62.5 | 3330 | – | 502

Stronger by EC50 (CFTR-S549N), values ahead:

Row | EC50 (CFTR ΔF508 mutant [1]) [nM] | EC50 (CFTR-S549N) [nM] | EC50 (CFTR-R117H) [nM] | EC50 (CFTR-G178R) [nM] | EC50 (CFTR ΔF508 mutant [2]) [nM] | EC50 (CFTR-G1349D) [nM] | EC50 (CFTR G551D mutant) [nM] | EC50 (CFTR ΔF508) [nM] | SMILES
5 | 17.9 | 158 | 177 | 98.8 | 6.13 | 75.3 | 198 | – | CC1(C)Cc2c(sc(NC(=O)c3cc(C4CC4)[nH]n3)c2C(N)=O)C(C)(C)O1 [Compound 13, N-(3-carbamoyl-5,5,7,7-tetramethyl-5,7-dihydro-4H-thieno[2,3-c]pyran-2-yl)-5-cyclopropyl-1H-pyrazole-3-carboxamide]
6 | 32.2 | 253 | 207 | 169 | 9.44 | 371 | 377 | – | CC(C)c1cc(C(=O)Nc2sc3c(c2C(N)=O)CC(C)(C)OC3(C)C)n[nH]1 [Compound 14, N-(3-carbamoyl-5,5,7,7-tetramethyl-5,7-dihydro-4H-thieno[2,3-c]pyran-2-yl)-5-isopropyl-1H-pyrazole-3-carboxamide]
7 | 7.56 | 208 | 158 | 87.5 | 2.72 | 75.3 | 77.5 | – | CC1(C)Cc2c(sc(NC(=O)c3cc(C(F)(F)F)[nH]n3)c2C(N)=O)C(C)(C)O1 [Compound 15, N-(3-carbamoyl-5,5,7,7-tetramethyl-5,7-dihydro-4H-thieno[2,3-c]pyran-2-yl)-5-(trifluoromethyl)-1H-pyrazole-3-carboxamide]
8 | 4 | 164 | 165 | 88.6 | 6.93 | 116 | 92 | – | CC1(C)Cc2c(sc(NC(=O)c3n[nH]cc3Br)c2C(N)=O)C(C)(C)O1 [Compound 33, 4-bromo-N-(3-carbamoyl-5,5,7,7-tetramethyl-5,7-dihydro-4H-thieno[2,3-c]pyran-2-yl)-1H-pyrazole-3-carboxamide]
